PubChem BioAssay (NCI)
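Tested at 5 concentrations; 48 h exposure; 96-well plates; endpoints linearly interpolated, else capped at highest concentration. GI50 is the concentration that inhibits growth by half. TGI: total growth inhibition.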

Key:
Assay in all cases: inhibition of tumour cell growth, NCI panel, 48 h
ACHN renal = test system: ACHN renal
COLO 205 colon = test system: COLO 205 colon
DU-145 prostate = test system: DU-145 prostate
HOP-92 NSCLC = test system: HOP-92 NSCLC
K-562 leukemia = test system: K-562 leukemia
RXF 393 renal = test system: RXF 393 renal
SF-539 CNS = test system: SF-539 CNS
SN12C renal = test system: SN12C renal
UACC-257 melanoma = test system: UACC-257 melanoma
HOP-62 NSCLC = test system: HOP-62 NSCLC

Structure (SMILES)	GI50 (ACHN renal)	TGI (ACHN renal)	GI50 (COLO 205 colon)	TGI (COLO 205 colon)	GI50 (DU-145 prostate)	TGI (DU-145 prostate)	GI50 (HOP-92 NSCLC)	TGI (HOP-92 NSCLC)	GI50 (K-562 leukemia)	TGI (K-562 leukemia)	GI50 (RXF 393 renal)	TGI (RXF 393 renal)	GI50 (SF-539 CNS)	TGI (SF-539 CNS)	GI50 (SN12C renal)	TGI (SN12C renal)	GI50 (UACC-257 melanoma)	TGI (UACC-257 melanoma)	GI50 (HOP-62 NSCLC)	TGI (HOP-62 NSCLC)
CCC(=O)Nc1ccc(N2C(=O)/C(=C/c3ccc(OC)cc3)N=C2c2ccccc2)cc1	5.62 µM	16 µM	9.23 µM	> 50 µM	10.4 µM	> 50 µM	0.0351 µM	21.1 µM	5.57 µM	> 50 µM	11.3 µM	> 50 µM	5.49 µM	16 µM	5.46 µM	15.3 µM	22.2 µM	> 50 µM	–	–
CN1CCN(CCCCCN=c2cc3c(=O)n(CCCCCN4CCN(C)CC4)c(=O)c4c(NCCCCCN5CCN(C)CC5)cc5c(O)n(CCCCCN6CCN(C)CC6)c(=O)c2c5c4-3)CC1	43.3 µM	> 100 µM	2.31 µM	8.07 µM	3.08 µM	10.3 µM	1.84 µM	7.39 µM	3.62 µM	> 100 µM	24.3 µM	> 100 µM	2.64 µM	8.32 µM	2.55 µM	9.73 µM	2.6 µM	6.56 µM	2.45 µM	12.2 µM
N#CCCC1(CCC#N)CCCCCCCCC(CCC#N)(CCC#N)C(O)C1O (stereo not given)	–	> 100 µM	–	> 100 µM	–	> 100 µM	–	> 100 µM	–	> 100 µM	–	86.9 µM	–	85.8 µM	–	> 100 µM	–	> 100 µM	–	> 100 µM
Cc1cc(C)c(C2CNCc3cc4c(cc32)CNCC4c2c(C)cc(C)cc2C)c(C)c1 (stereo not given)	3.76 µg/mL	13.4 µg/mL	2.63 µg/mL	7.49 µg/mL	7.21 µg/mL	19.8 µg/mL	11.8 µg/mL	24.9 µg/mL	1.1 µg/mL	3.22 µg/mL	2.2 µg/mL	4.45 µg/mL	2.23 µg/mL	3.85 µg/mL	2.59 µg/mL	9.63 µg/mL	1.83 µg/mL	4.27 µg/mL	8.62 µg/mL	22.3 µg/mL
CNNC(=NS(=O)(=O)c1cc(C#N)c(NNC)cc1S)NNC	–	> 10 µM	–	> 10 µM	–	> 10 µM	–	> 10 µM	–	> 10 µM	–	> 10 µM	–	> 10 µM	–	> 10 µM	–	> 10 µM	–	> 10 µM
COc1cc(/C=C/c2ccc3c(Br)cc(Br)c(O)c3n2)ccc1O	0.891 µM	12.1 µM	5.01 µM	17.2 µM	2.41 µM	17.6 µM	4.77 µM	20.8 µM	0.441 µM	10.5 µM	3.8 µM	18.3 µM	2.29 µM	10.3 µM	2 µM	17.9 µM	7.61 µM	22 µM	1.51 µM	8.07 µM
Cc1ccc(C2C3Cc4ccccc4C3=NN2c2ccc(S(=O)(=O)/N=c3\scc(-c4ccccc4)n3-c3ccccc3)cc2)cc1 (stereo not given)	21.6 µM	50.3 µM	23.3 µM	52.1 µM	24.7 µM	81.9 µM	18.8 µM	41.7 µM	14.9 µM	32.6 µM	24.8 µM	64.6 µM	19.5 µM	37.3 µM	16.8 µM	31.8 µM	20.4 µM	43.3 µM	40.2 µM	> 100 µM
O=C(CN1N=C(c2ccc(F)cc2)CCC1=O)Nc1nc2ccccc2s1	4.23 µM	> 100 µM	> 100 µM	> 100 µM	> 25.6 µM	> 100 µM	1.31 µM	2.84 µM	5.32 µM	> 100 µM	5.91 µM	> 55.9 µM	1.7 µM	3.19 µM	15.7 µM	> 100 µM	> 100 µM	> 100 µM	–	> 100 µM
C[C@@H]1Cc2cc(O)ccc2[C@H]2CC[C@]3(C)/C(=C/COCCN(C)C)CC[C@H]3[C@H]12 (tested in a mixture with another compound)	0.0429 µM	0.201 µM	0.363 µM	1.03 µM	0.142 µM	0.276 µM	0.216 µM	0.872 µM	0.256 µM	0.985 µM	0.105 µM	0.316 µM	0.176 µM	0.339 µM	0.111 µM	0.789 µM	0.495 µM	2.01 µM	0.285 µM	0.739 µM
O=C(NNS(=O)(=O)c1ccc(Cl)cc1Cl)c1cccnc1Nc1ccc(Cl)cc1	29.6 µM	93.5 µM	12.1 µM	24.4 µM	41.8 µM	> 100 µM	14.6 µM	40.7 µM	12.9 µM	25.6 µM	16.9 µM	43.8 µM	19 µM	44.5 µM	31.4 µM	> 100 µM	22.9 µM	60.5 µM	16.6 µM	37.7 µM
COc1ccc(C(=O)/C=C/c2ccc(OCC#N)cc2)cc1	–	> 100 µM	–	40.5 µM	–	81.7 µM	–	67.4 µM	–	96.6 µM	–	30.7 µM	–	45.4 µM	–	39.2 µM	–	> 100 µM	–	> 100 µM
CSc1ccc(C2=NN(C(C)=O)C(c3ccc(-c4ccc(Cl)cc4)o3)C2)cc1 (stereo not given)	37.1 µM	> 100 µM	36.2 µM	> 100 µM	81 µM	> 100 µM	22.7 µM	80.1 µM	31.5 µM	> 100 µM	44.6 µM	> 100 µM	60.2 µM	> 100 µM	21.7 µM	40.6 µM	77 µM	> 100 µM	42.4 µM	> 100 µM
COc1cccc(Oc2ccccc2NC(=O)CNC(=O)c2cccc3ccccc23)c1	0.398 µM	> 25 µM	0.283 µM	0.949 µM	0.703 µM	> 25 µM	0.202 µM	14.9 µM	0.13 µM	> 25 µM	0.165 µM	2.19 µM	0.225 µM	1.07 µM	1.44 µM	> 25 µM	–	–	0.302 µM	> 25 µM
